Measured values as given in PMC6954215, “Structures of β-glycosidase LXYL-P1-2 reveals the product binding state of GH3 family and a specific pocket for Taxol recognition” (Communications Biology, 2020).

Legend:
LXYL-P1-2 = target: T1, LXYL-P1-2 (Lentinula edodes, UniProt G8GLP2, E529Q); assay: X-ray crystallography, […] Å; type: binding; details: co-crystallised with XDT, cleaved in crystal; product complex with xylose; 0.1 M Hepes pH 7.5, 16 °C
T1 construct: expressed in Pichia pastoris GS115 from pPIC3.5K-lxyl-p1-2; KEX2 cleavage after Arg35, mature N-terminus Asp36; endoglycosidase-treated for crystals; tetramer

[1] = target: β-xylosidase/glucosidase LXYL-P1-2 (Lentinula edodes); assay: crystal structure; native crystal, endoglycosidase-treated protein at 10 mg/ml, hanging drop at 16 °C, 13% PEG3350, 0.1 M Tris-HCl pH 8.5, 0.2% MgCl2; 2.4 Å; tetramer in the asymmetric unit
[2] = target: β-xylosidase/glucosidase LXYL-P1-2 (Lentinula edodes); assay: SEC; molecular weight by gel filtration; conditions not given

Molecule	X-ray crystallography, 2.27 Å (LXYL-P1-2)	stoichiometry N [1]	stoichiometry N [2]
CC(=O)O[C@@]12CO[C@@H]1C[C@H](O)[C@@]1(C)C(=O)[C@H](O)C3=C(C)[C@@H](OC(=O)[C@H](O)[C@@H](NC(=O)c4ccccc4)c4ccccc4)C[C@@](O)([C@@H](OC(=O)c4ccccc4)[C@H]21)C3(C)C [10-deacetyltaxol]	The electron density clearly shows the existence of xylose and DT	–	–
OC1OC[C@@H](O)[C@H](O)[C@H]1O (stereo partly shown) [xylose]	The electron density clearly shows the existence of xylose and DT	–	–
β-xylosidase/glucosidase LXYL-P1-2 (enzyme)	–	4	4
